# Tests used:
# [1] = target: T1, Endothelin receptor type B (Sus scrofa, UniProt P35463); assay: Ability to displace endothelin ([125I]ET-3) from endothelin B receptor derived from cerebellar tissue of porcine.
# T1 sequence (P35463 whole entry): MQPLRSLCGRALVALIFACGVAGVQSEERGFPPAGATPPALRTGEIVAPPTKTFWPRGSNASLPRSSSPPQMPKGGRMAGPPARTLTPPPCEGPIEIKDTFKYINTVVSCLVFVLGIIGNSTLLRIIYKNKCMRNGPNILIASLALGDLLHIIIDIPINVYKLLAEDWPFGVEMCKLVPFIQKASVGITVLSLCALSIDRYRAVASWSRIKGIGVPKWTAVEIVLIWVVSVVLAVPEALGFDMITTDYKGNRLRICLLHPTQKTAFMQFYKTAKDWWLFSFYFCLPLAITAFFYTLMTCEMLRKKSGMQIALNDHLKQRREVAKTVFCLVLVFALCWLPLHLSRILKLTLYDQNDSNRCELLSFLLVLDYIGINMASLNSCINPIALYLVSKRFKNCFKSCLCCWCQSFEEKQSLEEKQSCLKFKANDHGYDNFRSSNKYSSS
# [2] = target: T2, Endothelin-1 receptor (Rattus norvegicus, UniProt P26684); assay: Ability to displace endothelin ([125I]ET1) from endothelin A receptor derived from MMQ cells of rodent.; format: cell-based, Rodentia sp.
# T2 sequence (P26684 whole entry): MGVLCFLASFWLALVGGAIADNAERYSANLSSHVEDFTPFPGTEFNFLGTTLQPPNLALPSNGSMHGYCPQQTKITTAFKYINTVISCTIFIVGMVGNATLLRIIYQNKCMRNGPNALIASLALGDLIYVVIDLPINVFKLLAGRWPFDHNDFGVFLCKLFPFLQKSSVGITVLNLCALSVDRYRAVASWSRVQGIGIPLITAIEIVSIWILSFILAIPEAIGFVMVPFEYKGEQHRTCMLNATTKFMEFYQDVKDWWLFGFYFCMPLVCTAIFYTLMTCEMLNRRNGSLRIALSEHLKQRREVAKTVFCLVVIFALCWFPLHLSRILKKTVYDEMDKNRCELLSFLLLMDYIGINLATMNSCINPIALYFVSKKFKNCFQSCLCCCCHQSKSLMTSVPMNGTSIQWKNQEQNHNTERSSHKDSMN
# [3] = Ratio of endothelin A receptor and endothelin B receptor.
# [4] = Oral bioavailability in rat; format: ADME, organism-based; settings: in vivo
# [5] = Half-life is obtained after intravenous dosing of rats.; format: ADME, organism-based; settings: rat, in vivo
Compound,IC50 [1],IC50 [2],Ratio [3],bioavailability [4],half-life [5]
CCCCS(=O)(=O)N(CCC)CCN1C[C@H](c2ccc3c(c2)OCO3)[C@@H](C(=O)O)[C@@H]1c1ccc(OC)c(F)c1 (stereo in doubt; 14a),1 nM,–,–,–,–
CCCCN(CCN1C[C@H](c2ccc3c(c2)OCO3)[C@@H](C(=O)O)[C@@H]1c1ccc(OC)cc1)C(=O)CCC,850 nM,20 nM,43,–,–
CCCCCCS(=O)(=O)N(CCC)CCN1C[C@H](c2ccc3c(c2)OCO3)[C@@H](C(=O)O)[C@@H]1c1ccc(OC)c(F)c1 (stereo in doubt; 14b),1.5 nM,–,–,–,–
CCCN(CCN1C[C@H](c2ccc3c(c2)OCO3)[C@@H](C(=O)O)[C@@H]1c1ccc(OC)cc1)S(=O)(=O)Cc1ccccc1,34 nM,–,–,–,–
CCCS(=O)(=O)N(CCN1C[C@H](c2ccc3c(c2)OCO3)[C@@H](C(=O)O)[C@@H]1c1ccc(OC)cc1)CC(C)C,62 nM,8.1 nM,7.7,–,–
CCCCCS(=O)(=O)N(CCC)CCN1C[C@H](c2ccc3c(c2)OCO3)[C@@H](C(=O)O)[C@@H]1c1ccc(OC)c(F)c1 (stereo in doubt; 13e),0.85 nM,–,–,–,–
CCCN(CCN1C[C@H](c2ccc3c(c2)OCO3)[C@@H](C(=O)O)[C@@H]1c1ccc(OC)cc1)S(=O)(=O)c1ccc(Cl)cc1,41 nM,6.3 nM,6.5,–,–
CCCN(CCN1C[C@H](c2ccc3c(c2)OCO3)[C@@H](C(=O)O)[C@@H]1c1ccc(OC)c(F)c1)S(=O)(=O)CCCC(F)(F)F (stereo in doubt; 14f),0.98 nM,–,–,–,–
CCCN(CCN1C[C@H](c2ccc3c(c2)OCO3)[C@@H](C(=O)O)[C@@H]1c1ccc(OC)cc1)S(=O)(=O)CCC,36 nM,1.6 nM,22,–,–
CCCCS(=O)(=O)N(CCC)CCN1C[C@H](c2ccc3c(c2)OCO3)[C@@H](C(=O)O)[C@@H]1c1ccc(OC)cc1,9.4 nM,2 nM,4.7,–,–
CCCS(=O)(=O)N(C)CCN1C[C@H](c2ccc3c(c2)OCO3)[C@@H](C(=O)O)[C@@H]1c1ccc(OC)cc1,260 nM,10 nM,26,–,–
CCCN(CCN1C[C@H](c2ccc3c(c2)OCO3)[C@@H](C(=O)O)[C@@H]1c1ccc(OC)c(F)c1)S(=O)(=O)Cc1ccccc1,2.9 nM,2.7 nM,1.1,–,–
CCCN(CCN1C[C@H](c2ccc3c(c2)OCO3)[C@@H](C(=O)O)[C@@H]1c1ccc(OC)c(F)c1)S(=O)(=O)CCC(C)C,1.2 nM,0.46 nM,2.6,–,–
CCCCCS(=O)(=O)N(CCC)CCN1C[C@H](c2ccc3c(c2)OCO3)[C@@H](C(=O)O)[C@@H]1c1ccc(OC)cc1,4.1 nM,0.57 nM,7.2,–,–
CCCN(CCN1C[C@H](c2ccc3c(c2)OCO3)[C@@H](C(=O)O)[C@@H]1c1ccc(OC)cc1)S(=O)(=O)CCCCl,6.3 nM,2 nM,3.1,–,–
CCCN(CCN1C[C@H](c2ccc3c(c2)OCO3)[C@@H](C(=O)O)[C@@H]1c1ccc(OC)cc1)S(=O)(=O)c1ccc(OC)cc1,66 nM,0.53 nM,120,–,–
CCCCCS(=O)(=O)N(CCC)CCN1C[C@H](c2ccc3c(c2)OCO3)[C@@H](C(=O)O)[C@@H]1c1ccc(OCOC)cc1,5.2 nM,0.62 nM,8.4,–,–
CCCCCS(=O)(=O)N(CCC)CCN1C[C@H](c2ccc3c(c2)OCO3)[C@@H](C(=O)O)[C@@H]1c1ccc2c(c1)OCCO2,7 nM,0.66 nM,10,–,–
CCCN(CCN1C[C@H](c2ccc3c(c2)OCO3)[C@@H](C(=O)O)[C@@H]1c1ccc(OC)c(F)c1)S(=O)(=O)CCCCl (stereo in doubt; 14e) [listing 2 of 2 here],–,–,2.5,–,–
CCCCCCS(=O)(=O)N(CCC)CCN1C[C@H](c2ccc3c(c2)OCO3)[C@@H](C(=O)O)[C@@H]1c1ccc(OC)cc1,4.5 nM,0.43 nM,10,–,–
CCCCN(CCN1C[C@H](c2ccc3c(c2)OCO3)[C@@H](C(=O)O)[C@@H]1c1ccc(OC)cc1)S(=O)(=O)CCC,60 nM,2 nM,30,–,–
CCCN(CCN1C[C@H](c2ccc3c(c2)OCO3)[C@@H](C(=O)O)[C@@H]1c1ccc(OC)cc1)S(=O)(=O)CC(C)C,5.2 nM,0.78 nM,6.6,–,–

# Results, then the molecule that gave them:
IC50 [1],IC50 [2],Ratio [3],bioavailability [4],half-life [5],Compound
2.6 nM,1.3 nM,2,–,–,CCCCCS(=O)(=O)N(CCC)CCN1C[C@H](c2ccc3c(c2)OCO3)[C@@H](C(=O)O)[C@@H]1c1ccc(OCC)c(F)c1
–,–,–,70%,–,CCCCN(CCCC)C(=O)CN1C[C@H](c2ccc3c(c2)OCO3)[C@@H](C(=O)O)[C@@H]1c1ccc(OC)cc1
1 nM,0.4 nM,–,–,–,CCCN(CCN1C[C@H](c2ccc3c(c2)OCO3)[C@@H](C(=O)O)[C@@H]1c1ccc(OC)c(F)c1)S(=O)(=O)CCCCl (stereo in doubt; 14e) [listing 1 of 2 here]
77 nM,5.2 nM,15,–,–,CCCN(CCN1C[C@H](c2ccc3c(c2)OCO3)[C@@H](C(=O)O)[C@@H]1c1ccc(OC)cc1)S(=O)(=O)CCOC
57 nM,5.1 nM,11,–,–,CCCCCCCS(=O)(=O)N(CCC)CCN1C[C@H](c2ccc3c(c2)OCO3)[C@@H](C(=O)O)[C@@H]1c1ccc(OC)cc1
85 nM,8.3 nM,10,–,–,CCCN(CCN1C[C@H](c2ccc3c(c2)OCO3)[C@@H](C(=O)O)[C@@H]1c1ccc(OC)cc1)S(=O)(=O)c1ccc(C)cc1
610 nM,48 nM,13,–,–,CCCCCS(=O)(=O)N(CCC)CCN1C[C@H](c2ccc3c(c2)OCO3)[C@@H](C(=O)O)[C@@H]1c1ccc(OCCC)cc1
68 nM,18 nM,3.8,–,–,CCCCCS(=O)(=O)N(CCC)CCN1C[C@H](c2ccc3c(c2)OCO3)[C@@H](C(=O)O)[C@@H]1c1ccc(F)c(F)c1
1.6 nM,0.21 nM,7.6,–,–,CCCN(CCN1C[C@H](c2ccc3c(c2)OCO3)[C@@H](C(=O)O)[C@@H]1c1ccc(OC)c(F)c1)S(=O)(=O)CC(C)C
–,–,–,30%,4 h,COc1ccccc1Oc1c(NS(=O)(=O)c2ccc(C(C)(C)C)cc2)nc(-c2ncccn2)nc1OCCO [BOSENTAN]
95 nM,1.2 nM,79,–,–,CCCN(CCN1C[C@H](c2ccc3c(c2)OCO3)[C@@H](C(=O)O)[C@@H]1c1ccc(OC)cc1)S(=O)(=O)CC
73 nM,2.3 nM,32,–,–,CCCCCS(=O)(=O)N(CCC)CCN1C[C@H](c2ccc3c(c2)OCO3)[C@@H](C(=O)O)[C@@H]1c1ccc(OC)c(OC)c1
210 nM,1.4 nM,150,–,–,CCCN(CCN1C[C@H](c2ccc3c(c2)OCO3)[C@@H](C(=O)O)[C@@H]1c1ccc(OC)cc1)S(=O)(=O)c1ccccc1
